Results as given in patent US11058654B2, “Compositions and methods for the treatment of hemoglobinopathies and thalassemias” (AXCELLA HEALTH INC., priority 2018, dated 2021).

Test system: TNFa
Assay: LPS-induced TNFa secretion in primary human PBMC-derived macrophages (ELISA)
Format: cell-based
Conditions: for TNFa Measurements Mean (baseline subtracted): LPS; for effect on LPS-induced TNFa secretion: in words
Experimental: Unpurified buffy coats (Research Blood Components) were carefully poured into 50 mL centrifuge tubes and diluted with room temperature Dulbecco's Phosphate Buffered Saline (dPBS) with Calcium and Magnesium (Gibco). Diluted buffy coats were further divided into four total 50 mL centrifuge tubes at 20 mL per tube. Lymphocyte Separation Medium (Corning) was carefully pipetted to the bottom of each centrifuge tube. Mixtures were centrifuged at 850× g for 32 minutes at 20° C. with 0 deceleration and acceleration.
The PBMC layer was separated from other components after centrifugation and added to new 50 mL centrifuge tube containing 25 mL dPBS. Total volume was brought up to 50 mL with dPBS and centrifuged at 600× g for 10 minutes at 20° C. with acceleration of 9, deceleration of 5. Supernatant was carefully removed from cell pellets. The cell pellets were resuspended using 10 mL dPBS. Total volume was then brought up to 50 mL using dPBS and centrifuged at 450× g for 5 min at 20° C. with acceleration of 9, deceleration of 9. The supernatant removal and cell pellet resuspension was repeated again.
The supernatant was then carefully removed from cell pellets. Cell pellets were resuspended in 10 mL dPBS without calcium or magnesium and filtered through a 70 uM cell strainer. The total PBMC number was determined using a Cellometer K2 automated cell counter. A total of 5E6 cells were saved for flow cytometric analysis. Remaining cells were centrifuged at 490× g for 5 minutes at 20° C. with acceleration of 9, deceleration of 9.
CD14+ cells were selected using EasySep™ Human CD14 Positive Selection Kit II ([…] Technologies). Cells were resuspended in cold EasySep™ Buffer ([…] Technologies) at 1×10^8 cells/mL. A total of 100 uL/mL EasySep™ Human CD14 Positive Selection Cocktail II was added to the cell suspension, mixed, and incubated at room temperature for 10 minutes. A total of 100 uL/mL RapidSpheres were added to the mixture and incubated at room temperature for 3 minutes after mixing, then RoboSep buffer was added to bring up the total volume to 10 mL. The mixture in a 15 mL tube was placed in magnet and incubated at room temperature for 3 minutes. Supernatant was discarded and 10 mL fresh EasySep™ buffer was added to 15 mL tube. The addition of RoboSep buffer, mixing, and discarding of supernatant was repeated two more times.
Negative and positive fractions were centrifuged at 490× g for 5 minutes at 20° C. with acceleration of 9, deceleration of 9, and resuspended in DMEM (Gibco) and 10% Heat Inactivated Fetal Bovine Serum (Atlanta Bio) and Penicillin/Streptomycin. Cells were counted and centrifuged again at […] for 5 minutes at 20° C. with acceleration of 9, deceleration of 9. After centrifugation, cell were resuspended in DMEM (Gibco) and 10% Heat Inactivated Fetal Bovine Serum (Atlanta Bio) and Penicillin/Streptomycin containing 500 U/mL […] and plated at 1-2×10^6 cells/mL on 10 cm tissue culture plates. Cells were kept in 37° C., 5% CO2 in between feedings/harvest.
Cells were fed every 3-4 days by removing media and unattached cells, centrifuging at 490× g for 5 minutes at 20 C with acceleration of 9, deceleration of 9, and resuspending in fresh DMEM (Gibco) and 10% Heat Inactivated Fetal Bovine Serum (Atlanta Bio) and Penicillin/Streptomycin containing GM-CSF. Resuspended cells were seeded back onto 10 cm tissue culture plates and incubated at 37° C., 5% CO2. Differentiated macrophages were used for subsequent experiments.
Primary human PMBC derived macrophages were seeded on day 0 at 3.0E4 cells per well in 96-well microplates (ThermoFisher) in Dulbecco's Modified Eagle Medium (DMEM) (Gibco) supplemented with penicillin-streptomycin (Hyclone) and 10% heat inactivated fetal bovine serum (HI-FBS) (Atlanta Bio) and incubated overnight at 37° C., 5% CO2. On day 1, cells were washed once with 150 uL per well DPBS (Gibco) and treated with 75 uL of: • a. […]

Row | SMILES | TNFa Measurements Mean (baseline subtracted) (Donor 1, Conc. 109 μM (baseline)) | TNFa Measurements Mean (baseline subtracted) (Donor 1, Conc. 1088 μM) | TNFa Measurements Mean (baseline subtracted) (Donor 1, Conc. 2720 μM) | TNFa Measurements Mean (baseline subtracted) (Donor 1, Conc. 5440 μM) | TNFa Measurements Mean (baseline subtracted) (Donor 2, Conc. 109 μM (baseline)) | TNFa Measurements Mean (baseline subtracted) (Donor 2, Conc. 1088 μM) | TNFa Measurements Mean (baseline subtracted) (Donor 2, Conc. 2720 μM) | TNFa Measurements Mean (baseline subtracted) (Donor 2, Conc. 5440 μM) | TNFa Measurements Mean (baseline subtracted) (Donor 3, Conc. 109 μM (baseline)) | TNFa Measurements Mean (baseline subtracted) (Donor 3, Conc. 1088 μM) | TNFa Measurements Mean (baseline subtracted) (Donor 3, Conc. 2720 μM) | TNFa Measurements Mean (baseline subtracted) (Donor 3, Conc. 5440 μM) | effect on LPS-induced TNFa secretion (Donor 2) | effect on LPS-induced TNFa secretion (Donor 3) | effect on LPS-induced TNFa secretion (Donor 1)
1 | N=C(N)NCCC[C@H](N)C(=O)O [Arginine] | 0 | −24.33 | 5.12 | 62.06 | 1.42E−14 | −12.7222 | −3.763 | −0.5738 | 3.55E−15 | 3.131 | −0.9669 | −1.767 | – | – | –
2 | NC(=O)CC[C@H](N)C(=O)O [Glutamine] | – | – | – | – | – | – | – | – | – | – | – | – | increased | increased | –
3 | CC(=O)N[C@@H](CS)C(=O)O [N-Acetyl Cysteine, N-acetylcysteine] | – | – | – | – | – | – | – | – | – | – | – | – | significantly reduced | significantly reduced | significantly reduced
